In patent US9163032B2, “Esters of DCPLA and methods of treatment using the same” (Blanchette Rockefeller Neurosciences Institute, priority 2011, dated 2015):

How the values were obtained:
[1] = system: Phosphatidylserine (C2) Binding Site; assay: 3H-DCPLA-ME binding to rat brain slices with C1 and C2 competitors (film-autoradiography); settings: rat brain slices
Procedure: To determine the binding site of DCPLA-ME, ^3H-DCPLA-ME was incubated with rat brain slices in the absence and presence of known C1 and C2 competitors. More specifically, rat brain sections were fixed with formaldehyde, sliced, and incubated with (1)^3H-DCPLA-ME alone; (2)^3H-DCPLA-ME with DCPLA; (3)^3H-DCPLA-ME with Phorbol ester; or (4)^3H-DCPLA-ME and Bryostatin 1. After incubation, the slices were washed with a buffer made of 130 mM NaCl, 5 mM MgCl, 5 mM KCl, 1 mM EGTA, and 0.1% bovine serum albumin in 10 mM HEPES-NaOH, pH 7.4, dried, and analyzed with film-autoradiography.

PKC-ε = target: T1, PKC-ε (Homo sapiens, UniProt Q02156); assay: PKC activation assay with purified PKC-ε isozyme (32P-phosphoprotein formation); assay type: biochemical; settings: for Emax: % of control of PKCε at maximum; for Specificity ε/α: Activation of PKC-ε ÷ activation or inhibition of PKCα at 3xEC50; for EC50: lowest concentration that activates by 50% of maximum activation
T1 sequence (Q02156 1-737): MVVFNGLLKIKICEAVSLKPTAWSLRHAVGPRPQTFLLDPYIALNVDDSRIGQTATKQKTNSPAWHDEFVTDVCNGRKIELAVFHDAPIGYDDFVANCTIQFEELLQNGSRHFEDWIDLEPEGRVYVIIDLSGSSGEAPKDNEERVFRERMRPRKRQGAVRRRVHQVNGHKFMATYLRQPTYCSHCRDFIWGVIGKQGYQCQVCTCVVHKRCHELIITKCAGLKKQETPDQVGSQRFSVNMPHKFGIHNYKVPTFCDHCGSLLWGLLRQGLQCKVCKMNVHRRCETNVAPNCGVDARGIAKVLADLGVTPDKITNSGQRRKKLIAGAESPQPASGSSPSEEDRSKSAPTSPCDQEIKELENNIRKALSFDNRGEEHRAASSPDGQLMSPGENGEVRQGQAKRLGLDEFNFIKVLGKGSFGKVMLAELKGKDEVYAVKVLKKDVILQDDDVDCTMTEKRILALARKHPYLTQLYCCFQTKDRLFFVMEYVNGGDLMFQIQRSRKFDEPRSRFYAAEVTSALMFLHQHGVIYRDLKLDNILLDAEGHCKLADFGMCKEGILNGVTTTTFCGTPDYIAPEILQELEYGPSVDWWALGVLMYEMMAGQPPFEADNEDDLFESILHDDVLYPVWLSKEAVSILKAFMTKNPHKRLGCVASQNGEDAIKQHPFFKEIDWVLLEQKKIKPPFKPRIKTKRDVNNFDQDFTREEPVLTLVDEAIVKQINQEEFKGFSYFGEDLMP
Procedure: For measurement of PKC activation by DCPLA-ME, activation of recombinant PKC-α, PKC-ε, and PKC-δ was evaluated. DCPLA-ME induced activation was measured in the absence of diacylglycerol (DAG) and phosphatidylserine (PS) as described earlier. See Nelson, T. J. et al., J. Biol. Chem., 2009, 284: 34514-34521, and Kanno, T. et al., J. Cell Physiol., 2009, 221: 183-188. Individual enzymes were incubated for 15 min at 37° C. in the presence of 10 μM histones, 4.89 mM CaCl2, 10 mM MgCl2, 20 mM HEPES (pH 7.4), 0.8 mM EDTA, 4 mM EGTA, 4% glycerol, 8 μg/ml aprotinin, 8 μg/ml leupeptin, 2 mM benzamidine, and 0.5 μCi of [γ-^32P]ATP. Purified PKC-α, PKC-ε and PKC-δ were preincubated with DCPLA-ME for 5 min at room temperature. [^32P]-Phosphoprotein formation was measured by adsorption onto phosphocellulose.
To measure PKC, 10 μl of cell homogenate or purified PKC isozyme was incubated for 15 min at 37° C. in the presence of 10 μM histones, 4.89 mM CaCl2, 1.2 μg/μl phosphatidyl-L-serine, 0.18 μg/μl 1,2-dioctanoyl-sn-glycerol, 10 mM MgCl2, 20 mM HEPES (pH 7.4), 0.8 mM EDTA, 4 mM EGTA, 4% glycerol, 8 μg/ml aprotinin, 8 μg/ml leupeptin, and 2 mM benzamidine. [γ32P]ATP (0.5 μCi) was added and 32P-phosphoprotein formation was measured by adsorption onto phosphocellulose as described previously. See Nelson et al., J. Neurochemistry, 1995, 65: 2350-2357.
PKC activity of each compound was measured in the absence of diacylglycerol and phosphatidyl-L-serine and PKC-δ and PKC-ε were measured in the absence of added EGTA and CaCl2, as described by Kanno et al., J. Lipid Res., 2006, 47: 1146-1156. Low concentrations of Ca^2+ are needed because high Ca^2+ interacts with the PKC phosphatidylserine binding site and prevents activation. […] To determine their PKC isozyme specificity, the compounds were pre-incubated with purified isoforms of PKC for five minutes and the PKC activity was measured radiometrically.
The activation and PKC isozyme specificity of DCPLA-ethyl ester was measured following the procedures in Example 1(B) and (C), except that 9 ng of the purified isozyme was used and it was pre-incubated for 5 minutes at room temperature (FIG. 3). PKC-ε activation by DCPLA-tert-butyl ester and DCPLA-retinyl ester was measured in the same manner as DCPLA-ethyl ester (FIG. 3).
The EC50 values, PKC specificity, and activation for a select number of DCPLA esters was determined (see Table 1). EC50 values were determined by measuring the lowest concentration that activates by 50% of maximum activation. […] The specificity and activation of PKC by the various esters of DCPLA were determined from the measurements of activation of PKC isozymes.

[2] = system: rat primary hippocampal neurons; assay: Neurotoxic effect of Aβ1-42 oligomers, MTT viability assay; assay type: cell-based; settings: 20 hr
Procedure: Amylospheroids (ASPDs) and Aβ monomers were prepared following Hoshi, M., et al. (2003) Proc Natl Acad Sci USA 100, 6370-6375, and Noguchi, A., et al. (2009) J Biol Chem 284, 32895-32905. Briefly, Aβ1-42 was dissolved in 1,1,1,3,3,3-hexafluoro-2-propanol and incubated overnight at 4° C. and then 3 hr at 37° C. The dissolved Aβ1-42 was then lyophilized in 1.5 ml polypropylene centrifuge tubes at 40 nmol/tube concentration. For preparing the ASPDs, the lyophilized Aβ was dissolved in phosphate buffered saline (PBS) without Ca^2+ or Mg^2+ at less than 50 μM concentration and rotated for 14 hr at 4° C. After incubation, the Aβ solution was purified using a 100 kDa molecular mass cutoff filter (Amicon Ultra, Millipore) and the high-molecular weight fraction was saved to obtain the most toxic ASPDs. Aβ derived diffusible ligands (ADDLs) were produced as previously described. See Lambert, M. P et al., Proc. Natl. Acad. Sci. USA, 1998, 95: 6448-6453. Briefly, Aβ1-42 was solubilized at 5 mM in dimethyl sulfoxide, diluted to 100 μM in F12k medium and was incubated at 4° C. for 24 hr. The solution was centrifuged at 14000×g for 10 min at 4° C. and the supernatant was used as the ADDLs.
Viability of cells was measured by MTT assay. MTT (i.e., 3-(4,5-dimethylthiazol-2-yl)-2,5-diphenyltetrazolium bromide) is a tetrazolium salt that is cleaved to formazan by the succinate dehydrogenase, which is only active in viable cells. After solubilization of the formazan, the amount of dye can be quantified with a microplate reader at 570 nm along with a reference of 630 nm. For the MTT assay, 5×10^4 primary rat hippocampal neurons from 18-day-old embryonic Sprague-Dawley rat brains or SH-SY5Y cells were plated on each well of 24-well plates coated with poly-D-lysine. After treatment, the cells were washed with 1× PBS and were incubated with 200 μl of 1 mg/ml MTT solution (Sigma, USA) at 37° C. for 2 hr. Then the MTT-solution was removed and the cells were lysed with 200 μl isopropanol containing 0.04 M HCl and […] for 10 min. Finally, the reading was taken at 570 nm and 630 nm. All the samples were done in triplicate and the data were represented as the percentage of control.
To assess the neurotoxic effect of different sized oligomers, rat primary hippocampal neurons were treated with variable concentrations of these Aβ1-42 species for 20 hr. Viability of the treated cells was compared to untreated cells using the MTT assay described above.

Molecule | Emax (PKC-ε) [%] | Specificity ε/α (PKC-ε) | EC50 (PKC-ε) [nM] | also measured
CCCC(=O)O[C@@H]1[C@@H](C)[C@@]2(O)[C@@H](C=C(CO)C[C@]3(O)C(=O)C(C)=C[C@@H]23)[C@@H]2C(C)(C)[C@]12OC(=O)CCC [Phorbol ester (PdBu)] | – | – | – | 3H-DCPLA-ME binding, 30 nM competitor [1]: 100%; 3H-DCPLA-ME binding, 1 μM competitor [1]: 81%
CCCCCCCCC1CC1CCCCCCCCOC(=O)CCCCCCCC1CC1CC1CC1CCCCC (stereo not shown) [DCPLA-cyclopropanated oleyl ester] | 140 | 8.1 | 3 | concentration of maximal activation (PKC-ε; FIG. 2, FIG. 4): 10 nM; PKC isozyme specificity (PKC-ε; PKC-ε vs PKC-α and PKC-δ): relatively specific for PKC-ε; PKC-ε activation at its peak (PKC-ε; maximum, FIG. 1, 2, 4): 140 % of control
CCCCCC1CC1CC1CC1CCCCCCCC(=O)OCC (stereo not shown) [DCPLA-ethyl ester] | 126 | 4.2 | 3 | –
oAβ < 100 kDa: filtrate from the 100 kDa filtration of ASPD preparation, 12 monomers on average | – | – | – | Viability of primary neuron ([2]; 50 nM): 76.41 ± 5.54 % of control; Viability of primary neuron ([2]; 50 nM, listed as OAβ<100 kDa filtrate): significantly cytotoxic; Viability of primary neuron ([2]; 500 nM): 62.94 ± 9.53 % of control; Viability of primary neuron ([2]; 1000 nM (1 μM)): 53.52 ± 2.43 % of control
CCCCCC1CC1CC1CC1CCCCCCCC(=O)OC(C)(C)C (stereo not shown) [DCPLA-t-butyl ester, DCPLA-tert-butyl ester] | 130 | – | 1 | form of activity vs. concentration response (PKC-ε): bimodal activation
CCCCCC1CC1CC1CC1CCCCCCCC(=O)OC/C=C(C)/C=C/C=C(C)/C=C/C1=C(C)CCCC1(C)C (stereo not shown) [DCPLA-retinyl ester] | 129 | – | 10 | –
CCCCCC1CC1CC1CC1CCCCCCCC(=O)O (stereo not shown) [DCPLA, 8-[2-(2-pentylcyclopropylmethyl)-cyclopropyl]-octanoic acid] | 300 | 7.4 | 1000 | 3H-DCPLA-ME binding, 30 nM competitor [1]: 86%; 3H-DCPLA-ME binding, 1 μM competitor [1]: 35%
